Results taken from patent US10434112B2, “Use of agonists of formyl peptide receptor 2 for treating dermatological diseases” (Allergan, Inc., priority 2013, dated 2019).

target: human FPR2 receptor (Homo sapiens (Human), UniProt P25090); assay: FLIPR Ca+2 response in HEK-Gα16 cells stably expressing the human FPR2 receptor; type: cell-based; set-up: FPR2 (% eff): unit not given here; conditions: Table 4; value in brackets, given mostly as fraction
Procedure: FLIPR: HEK-Gα16 cells stably expressing the human FPR2 receptor was utilized. Cells were plated into 384-well poly-D-lysine coated plates at a density of 18,000 cells per well one day prior to use. The growth media was DMEM medium supplemented with 10% fetal bovine serum (FBS), 1% antibiotic-antimycotic, 50 μg/ml hygromycin, and 400 μg/ml geneticin. On the day of the experiment, the cells were washed twice with Hank's Balanced Salt Solution supplemented with 20 mM HEPES (HBSS/hepes buffer). The cells were then dye loaded with 2 μM Fluo-4 diluted in the HBSS/Hepes buffer and incubated at 37° C. for 40 minutes. Extracellular dye was removed by washing the cell plates four times prior to placing the plates in the FLIPR (Fluorometric Imaging Plate Reader, Molecular Devices). Ligands were diluted in HBSS/Hepes buffer and prepared in 384-well microplates. Data for Ca^+2 responses were obtained in relative fluorescence units.

human FPR2 receptor, sequence (P25090 whole entry): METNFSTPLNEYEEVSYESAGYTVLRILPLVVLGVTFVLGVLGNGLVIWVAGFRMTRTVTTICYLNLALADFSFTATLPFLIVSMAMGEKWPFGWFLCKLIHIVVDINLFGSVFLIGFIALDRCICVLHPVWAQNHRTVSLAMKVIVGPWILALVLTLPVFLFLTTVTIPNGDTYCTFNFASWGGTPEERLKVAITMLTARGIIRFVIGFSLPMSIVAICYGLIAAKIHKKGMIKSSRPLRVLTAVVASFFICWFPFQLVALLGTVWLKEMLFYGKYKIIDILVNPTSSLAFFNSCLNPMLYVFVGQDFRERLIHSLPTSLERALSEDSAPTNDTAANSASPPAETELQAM

Row | Structure (SMILES) | FPR2 (% eff)
1 | CCC1(CCc2ccccc2)NC(=O)N(NC(=O)Nc2ccc(Br)cc2)C1=O (centres unmarked) [Compound 1, 1-(4-bromophenyl)-3-[4-ethyl-2,5-dioxo-4-(2-phenylethyl)imidazolidin-1-yl]urea] | 0.96
2 | O=C(Nc1ccc(Br)cc1)NN1C(=O)NC2(CCCCC2)C1=O [Compound 52, 1-(4-bromophenyl)-3-(2,4-dioxo-1,3-diazaspiro[4.5]dec-3-yl)urea] | 1.0
3 | CCOP(=O)(CNC(=O)[C@H](Cc1ccccc1)NC(=O)Nc1ccc(Br)cc1)OCC [Compound 118, diethyl ({[(2S)-2-{[(4-bromophenyl)carbamoyl]amino}-3-phenylpropanoyl]amino}methyl)phosphonate] | 0.93
4 | CSc1ccc(NC(=O)Nc2ccc3c(c2)C(=O)N(CCc2c[nH]cn2)C(c2ccc(Cl)cn2)C3)cc1 (centres unmarked) [Compound 32, 1-{3-(5-chloropyridin-2-yl)-2-[2-(1H-imidazol-4-yl)ethyl]-1-oxo-1,2,3,4-tetrahydroisoquinolin-7-yl}-3-[4-(methylsulfanyl)phenyl]urea] | 0.91
5 | CCOP(=O)(O)CNC(=O)[C@@H](NC(=O)Nc1ccc(Br)cc1)[C@@H](C)CC [Compound 115, ethyl hydrogen ({[(2S,3S)-2-{[(4-bromophenyl)carbamoyl]amino}3-methylpentanoyl]amino}methyl)phosphonate] | 0.88
6 | C[S+]([O-])c1ccc(NC(=O)Nc2ccc3c(c2)C(=O)N(CCc2c[nH]cn2)C(c2ccc(F)cn2)C3)cc1 (centres unmarked) [Compound 24, 1-{3-(5-fluoropyridin-2-yl)-2-[2-(1H-imidazol-4-yl)ethyl]-1-oxo-1,2,3,4-tetrahydroisoquinolin-7-yl}-3-[4-(methylsulfinyl)phenyl]urea] | 0.93
7 | CSc1ccc(NC(=O)Nc2ccc3c(c2)C(=O)N(CCc2c[nH]cn2)C(c2ccc(Cl)o2)C3)cc1 (centres unmarked) [Compound 27, 1-{3-(5-chlorofuran-2-yl)-2-[2-(1H-imidazol-4-yl)ethyl]-1-oxo-1,2,3,4-tetrahydroisoquinolin-7-yl}-3-[4-(methylsulfanyl)phenyl]urea] | 0.81
8 | CCC[C@H](NC(=O)Nc1ccc(Br)cc1)C(=O)NCP(=O)(O)OCC [Compound 123, ethyl hydrogen ({[(2S)-2-{[(4-bromophenyl)carbamoyl]amino}pentanoyl]amino}methyl) phosphonate] | 0.96
9 | CNC(=O)C1C(C(=O)Nc2ccc(Br)cc2)C2CCC1C21CC1 (centres unmarked) [Compound 46, N-(4-bromophenyl)-N′-methylspiro[bicyclo[2.2.1]heptane-7,1′-cyclopropane]-2,3-dicarboxamide] | 1.0
10 | CCOP(=O)(CNC(=O)[C@H](CC(C)C)NC(=O)Nc1ccc(C(F)(F)F)cc1)OCC [Compound 134, diethyl ({[(2S)-4-methyl-2-({[4-(trifluoromethyl)phenyl]carbamoyl}amino)pentanoyl]amino}methyl)phosphonate] | 0.97
11 | NC(=O)C1C(C(=O)Nc2ccc(Br)cc2)C2CCC1C21CC1 (centres unmarked) [Compound 30, N-(4-bromophenyl)spiro[bicyclo[2.2.1]heptane-7,1′-cyclopropane]-2,3-dicarboxamide] | 0.96

The remaining lines, values ahead:

Row | FPR2 (% eff) | Structure (SMILES)
12 | 1.0 | CC(C)C[C@H](NC(=O)Nc1ccc(Br)cc1)C(=O)N(C)CC(=O)O [Compound 155, {[(2S)-2-{[(4-bromophenyl)carbamoyl]amino}-4-methylpentanoyl](methyl)amino}acetic acid]
13 | 1.0 | CC1(CCc2ccc(F)cc2)NC(=O)N(NC(=O)Nc2ccc(Br)cc2)C1=O (centres unmarked) [Compound 82, 1-(4-bromophenyl)-3-{4-[2-(4-fluorophenyl)ethyl]-4-methyl-2,5-dioxoimidazolidin-1-yl}urea]
14 | 1.0 | CC(C)C[C@H](NC(=O)Nc1ccc(Br)cc1)C(=O)N[C@H](C(=O)O)c1ccccc1 [Compound 103, (2S)-{[(2S)-2-{[(4-bromophenyl)carbamoyl]amino}-4-methylpentanoyl]amino} (phenyl)ethanoic acid]
15 | 1.0 | CC(C)C1(CC(=O)NCCO)NC(=O)N(NC(=O)Nc2ccc(Br)cc2)C1=O (centres unmarked) [Compound 133, 2-[1-{[(4-bromophenyl)carbamoyl]amino}-2,5-dioxo-4-(propan-2-yl)imidazolidin-4-yl]-N-(2-hydroxyethyl)acetamide]
16 | 0.99 | CC1(CCc2ccco2)NC(=O)N(NC(=O)Nc2ccc(Br)cc2)C1=O (centres unmarked) [Compound 76, 1-(4-bromophenyl)-3-{4-[2-(furan-2-yl)ethyl]-4-methyl-2,5-dioxoimidazolidin-1-yl}urea]
17 | 0.99 | CCC[C@H](NC(=O)[C@H](CC(C)C)NC(=O)Nc1ccc(Br)cc1)C(N)=O [Compound 102, (2S)-N-[(2S)-1-amino-1-oxopentan-2-yl]-2-{[(4-bromophenyl)carbamoyl]amino}-4-methylpentanamide]
18 | 0.96 | CC(C)C[C@H](NC(=O)Nc1ccc(Br)cc1)C(=O)NC(CO)CO [Compound 94, (2S)-2-{[(4-bromophenyl)carbamoyl]amino}-N-(1,3-dihydroxypropan-2-yl)-4-methylpentanamide]
19 | 0.92 | CSc1ccc(NC(=O)N[C@@H](CC(C)C)C(=O)O)cc1 [Compound 128, (2S)-4-methyl-2-({[4-(methylsulfanyl)phenyl]carbamoyl}amino)pentanoic acid]
20 | 0.82 | CC(=O)CNC(=O)[C@H](CC(C)C)NC(=O)Nc1ccc(Br)cc1 [Compound 78, (2S)-2-{[(4-bromophenyl)carbamoyl]amino}-4-methyl-N-(2-oxopropyl)pentanamide]
21 | 0.93 | CC(C)C[C@H](NC(=O)Nc1ccc(Br)cc1)C(=O)NCC(C)(C)O [Compound 93, (2S)-2-{[(4-bromophenyl)carbamoyl]amino}-N-(2-hydroxy-2-methylpropyl)-4-methylpentanamide]
22 | 0.96 | CC(C)C[C@H](NC(=O)Nc1ccc(C(F)(F)F)cc1)C(=O)NCc1nnn[nH]1 [Compound 136, (2S)-4-methyl-N-(1H-tetrazol-5-ylmethyl)-2-({[4-(trifluoromethyl)phenyl]carbamoyl}amino)pentanamide]
23 | 1.0 | CC(C)C1(CCc2ccccc2C(=O)O)NC(=O)N(NC(=O)Nc2ccc(Br)cc2)C1=O (centres unmarked) [Compound 151, 2-{2-[1-{[(4-bromophenyl)carbamoyl]amino}-2,5-dioxo-4-(propan-2-yl)imidazolidin-4-yl]ethyl}benzoic acid]
24 | 1.0 | CCC1(CCc2ccccc2C(=O)O)NC(=O)N(NC(=O)Nc2ccc(Br)cc2F)C1=O (centres unmarked) [Compound 146, 2-[2-(1-{[(4-bromo-2-fluorophenyl)carbamoyl]amino}-4-ethyl-2,5-dioxoimidazolidin-4-yl)ethyl]benzoic acid]
25 | 0.98 | O=C(O)CCNC(=O)[C@H](Cc1ccccc1)NC(=O)Nc1ccc(Br)cc1 [Compound 56, 3-{[(2S)-2-{[(4-bromophenyl)carbamoyl]amino}-3-phenylpropanoyl]amino} propanoic acid]
26 | 0.94 | CCOC(=O)CCC1(C(C)C)NC(=O)N(NC(=O)Nc2ccc(Br)cc2)C1=O (centres unmarked) [Compound 149, ethyl 3-[1-{[(4-bromophenyl)carbamoyl]amino}-2,5-dioxo-4-(propan-2-yl)imidazolidin-4-yl]propanoate]
